In patent US20250269072A1, “PROCESSES FOR PREPARING RADIOLABELLED CONJUGATES” (CENTENARY INSTITUTE OF CANCER MEDICINE AND CELL BIOLOGY, priority 2021, published 2025):
Several values for one entry are separate records, joined by “and”; a condition that tells them apart may be missing. Identical values can stand only once. Entries after “also recorded” stand apart in the source; their conditions may differ.

What was measured:
Human studies: safety = format: in vivo; settings: patients 1-4, 200-207 MBq
Excerpt: patient with squamous cell carcinoma of the oesophagus • 2. Person with metastatic ovarian carcinoma • 3. Person with metastatic cutaneous squamous cell carcinoma • 4. Person with invasive ductal breast carcinoma.

[1] = Human studies: radiation dosimetry of subjects 1-4 (Olinda/EXM); format: in vivo; settings: subjects 1-4 = the 7th table-the 10th table
Protocol: For subjects 1-4, radiation dosimetry was calculated using Olinda/EXM based on the organ biodistribution discussed above.
Tables 7-10 show the estimate for radiation dosimetry for subjects 1˜4 of 200 MBq of ^68Ga NODAGA GSAO for individual organs and for the whole body in mSv/MBq (EDE cont.=effective dose equivalent contribution, ED Cont.=effective dose contribution). The estimated whole-body dose from the one (1) low dose CT and two (2) ultra-low dose CTs was 9.2 mSv.

O=C(O)CNC(=O)[C@H](CSCC(=O)Nc1ccc([As](O)O)cc1)NC(=O)CC[C@H](NC(=O)CCC1C(=O)[O][68Ga]2[O]C(=O)CN3CCN(CCN1CC3)CC(=O)[O]2)C(=O)O (stereo partly shown) [^68Ga-NODAGA-GSAO]
adverse events (Human studies: safety): no related or unrelated serious adverse events or adverse events; also recorded: safe, well-tolerated and without adverse effects
Alpha dose ([1]; Adrenals): 0.00E+00 mSv/MBq
ED Cont. ([1]; Adrenals): 7.09E−05 mSv/MBq and 7.38E−05 mSv/MBq and 4.84E−05 mSv/MBq and 8.93E−05 mSv/MBq
Photon dose ([1]; Adrenals): 4.52E−03 mSv/MBq and 5.24E−03 mSv/MBq and 3.71E−03 mSv/MBq and 4.86E−03 mSv/MBq
Total dose ([1]; Adrenals): 1.42E−02 mSv/MBq and 1.48E−02 mSv/MBq and 9.68E−03 mSv/MBq and 1.79E−02 mSv/MBq
Alpha dose ([1]; Brain): 0.00E+00 mSv/MBq
Beta dose ([1]; Brain): 6.82E−04 mSv/MBq and 6.40E−04 mSv/MBq and 6.13E−04 mSv/MBq and 7.79E−04 mSv/MBq
ED Cont. ([1]; Brain): 9.10E−06 mSv/MBq and 1.05E−05 mSv/MBq and 7.39E−06 mSv/MBq and 1.00E−05 mSv/MBq
EDE Cont. ([1]; Brain): 0.00E+00 mSv/MBq
Photon dose ([1]; Brain): 1.14E−03 mSv/MBq and 1.46E−03 mSv/MBq and 8.65E−04 mSv/MBq and 1.23E−03 mSv/MBq
Total dose ([1]; Brain): 1.82E−03 mSv/MBq and 2.10E−03 mSv/MBq and 1.48E−03 mSv/MBq and 2.01E−03 mSv/MBq
Alpha dose ([1]; Breasts): 0.00E+00 mSv/MBq
Photon dose ([1]; Breasts): 2.11E−03 mSv/MBq and 2.76E−03 mSv/MBq and 1.59E−03 mSv/MBq and 2.25E−03 mSv/MBq
Alpha dose ([1]; Gallbladder Wall): 0.00E+00 mSv/MBq
ED Cont. ([1]; Gallbladder Wall): 0.00E+00 mSv/MBq
EDE Cont. ([1]; Gallbladder Wall): 0.00E+00 mSv/MBq
Photon dose ([1]; Gallbladder Wall): 4.59E−03 mSv/MBq and 5.27E−03 mSv/MBq and 4.07E−03 mSv/MBq and 4.46E−03 mSv/MBq
Total dose ([1]; Gallbladder Wall): 8.07E−03 mSv/MBq and 9.96E−03 mSv/MBq and 6.09E−03 mSv/MBq and 8.56E−03 mSv/MBq
Alpha dose ([1]; Heart Wall): 0.00E+00 mSv/MBq
Beta dose ([1]; Heart Wall): 6.65E−03 mSv/MBq and 8.27E−03 mSv/MBq and 4.65E−03 mSv/MBq and 7.57E−03 mSv/MBq
ED Cont. ([1]; Heart Wall): 0.00E+00 mSv/MBq
EDE Cont. ([1]; Heart Wall): 0.00E+00 mSv/MBq
Photon dose ([1]; Heart Wall): 3.57E−03 mSv/MBq and 4.29E−03 mSv/MBq and 2.82E−03 mSv/MBq and 3.84E−03 mSv/MBq
Total dose ([1]; Heart Wall): 1.02E−02 mSv/MBq and 1.26E−02 mSv/MBq and 7.48E−03 mSv/MBq and 1.14E−02 mSv/MBq
Alpha dose ([1]; Kidneys): 0.00E+00 mSv/MBq
Beta dose ([1]; Kidneys): 4.32E−02 mSv/MBq and 4.21E−02 mSv/MBq and 4.45E−02 mSv/MBq and 4.30E−02 mSv/MBq
ED Cont. ([1]; Kidneys): 2.52E−04 mSv/MBq and 2.48E−04 mSv/MBq and 2.57E−04 mSv/MBq
EDE Cont. ([1]; Kidneys): 3.03E−03 mSv/MBq and 2.98E−03 mSv/MBq and 3.08E−03 mSv/MBq and 3.02E−03 mSv/MBq
Photon dose ([1]; Kidneys): 7.22E−03 mSv/MBq and 7.59E−03 mSv/MBq and 6.83E−03 mSv/MBq and 7.33E−03 mSv/MBq
Total dose ([1]; Kidneys): 5.04E−02 mSv/MBq and 4.97E−02 mSv/MBq and 5.13E−02 mSv/MBq and 5.03E−02 mSv/MBq
Alpha dose ([1]; LLI Wall): 0.00E+00 mSv/MBq
ED Cont. ([1]; LLI Wall): 2.43E−03 mSv/MBq and 2.50E−03 mSv/MBq and 2.44E−03 mSv/MBq and 1.48E−03 mSv/MBq
Photon dose ([1]; LLI Wall): 7.31E−03 mSv/MBq and 7.16E−03 mSv/MBq and 5.96E−03 mSv/MBq and 8.79E−03 mSv/MBq
Total dose ([1]; LLI Wall): 2.02E−02 mSv/MBq and 2.08E−02 mSv/MBq and 2.03E−02 mSv/MBq and 1.23E−02 mSv/MBq
Alpha dose ([1]; Liver): 0.00E+00 mSv/MBq
Beta dose ([1]; Liver): 1.27E−02 mSv/MBq and 1.45E−02 mSv/MBq and 1.20E−02 mSv/MBq and 1.16E−02 mSv/MBq
ED Cont. ([1]; Liver): 8.78E−04 mSv/MBq and 1.00E−03 mSv/MBq and 8.20E−04 mSv/MBq and 8.13E−04 mSv/MBq
Photon dose ([1]; Liver): 4.84E−03 mSv/MBq and 5.51E−03 mSv/MBq and 4.36E−03 mSv/MBq and 4.71E−03 mSv/MBq
Total dose ([1]; Liver): 1.76E−02 mSv/MBq and 2.00E−02 mSv/MBq and 1.64E−02 mSv/MBq and 1.63E−02 mSv/MBq
Alpha dose ([1]; Lungs): 0.00E+00 mSv/MBq
Beta dose ([1]; Lungs): 5.19E−03 mSv/MBq and 5.73E−03 mSv/MBq and 5.16E−03 mSv/MBq and 4.82E−03 mSv/MBq
ED Cont. ([1]; Lungs): 9.74E−04 mSv/MBq and 1.11E−03 mSv/MBq and 9.04E−04 mSv/MBq and 9.57E−04 mSv/MBq
EDE Cont. ([1]; Lungs): 9.74E−04 mSv/MBq and 1.11E−03 mSv/MBq and 9.04E−04 mSv/MBq and 9.57E−04 mSv/MBq
Photon dose ([1]; Lungs): 2.93E−03 mSv/MBq and 3.54E−03 mSv/MBq and 2.37E−03 mSv/MBq and 3.15E−03 mSv/MBq
Total dose ([1]; Lungs): 8.12E−03 mSv/MBq and 9.27E−03 mSv/MBq and 7.53E−03 mSv/MBq and 7.97E−03 mSv/MBq
Alpha dose ([1]; Muscle): 0.00E+00 mSv/MBq
Beta dose ([1]; Muscle): 6.19E−03 mSv/MBq and 6.08E−03 mSv/MBq and 5.15E−03 mSv/MBq and 7.68E−03 mSv/MBq
ED Cont. ([1]; Muscle): 4.85E−05 mSv/MBq and 4.95E−05 mSv/MBq and 3.99E−05 mSv/MBq and 5.88E−05 mSv/MBq
EDE Cont. ([1]; Muscle): 0.00E+00 mSv/MBq
Photon dose ([1]; Muscle): 3.51E−03 mSv/MBq and 3.83E−03 mSv/MBq and 2.83E−03 mSv/MBq and 4.07E−03 mSv/MBq
Total dose ([1]; Muscle): 9.71E−03 mSv/MBq and 9.91E−03 mSv/MBq and 7.98E−03 mSv/MBq and 1.18E−02 mSv/MBq
Alpha dose ([1]; Osteogenic Cells): 0.00E+00 mSv/MBq
Photon dose ([1]; Osteogenic Cells): 3.47E−03 mSv/MBq and 4.14E−03 mSv/MBq and 2.74E−03 mSv/MBq and 3.80E−03 mSv/MBq
Alpha dose ([1]; Ovaries): 0.00E+00 mSv/MBq
Photon dose ([1]; Ovaries): 7.00E−03 mSv/MBq and 6.95E−03 mSv/MBq and 5.52E−03 mSv/MBq and 8.79E−03 mSv/MBq
Total dose ([1]; Ovaries): 1.01E−02 mSv/MBq and 1.16E−02 mSv/MBq and 7.54E−03 mSv/MBq and 1.23E−02 mSv/MBq
Alpha dose ([1]; Pancreas): 0.00E+00 mSv/MBq
Beta dose ([1]; Pancreas): 1.20E−02 mSv/MBq and 1.62E−02 mSv/MBq and 1.13E−02 mSv/MBq and 1.18E−02 mSv/MBq
ED Cont. ([1]; Pancreas): 8.46E−05 mSv/MBq and 1.10E−04 mSv/MBq and 7.72E−05 mSv/MBq and 8.44E−05 mSv/MBq
EDE Cont. ([1]; Pancreas): 8.14E−04 mSv/MBq and 1.32E−03 mSv/MBq and 9.27E−04 mSv/MBq and 1.01E−03 mSv/MBq
Photon dose ([1]; Pancreas): 4.90E−03 mSv/MBq and 5.90E−03 mSv/MBq and 4.18E−03 mSv/MBq and 5.04E−03 mSv/MBq
